This passage reports inhibition, solubility and Ratio results from ChEMBL document CHEMBL3045632, “Synthetic inhibitors of the fungal detoxifying enzyme brassinin oxidase based on the phytoalexin camalexin scaffold” (J Agric Food Chem, 2009).

Data set [1] deals with Plenodomus lingam. Description: Inhibition of Leptosphaeria maculans brassinin oxidase activity at 0.30 mM relative to control.
Data set [2] is described as follows: Solubility of the compound at 50 mM. Format: physicochemical. The following applies: 50000 µM.
Data set [3] deals with Plenodomus lingam. Kind of data set: Antifungal activity against Leptosphaeria maculans assessed as inhibition of mycelial growth at 0.20 mM relative to control. Format: functional.
The test system of data set [4] is Plenodomus lingam. Kind of data set: Antifungal activity against Leptosphaeria maculans assessed as inhibition of mycelial growth at 0.10 mM relative to control. Type of data set: functional.
In data set [5] the test system is Plenodomus lingam. Description: Inhibition of Leptosphaeria maculans brassinin oxidase assessed as relative protein at 0.50 mM relative to control.
The subject of data set [6] is Plenodomus lingam. Kind of data set: Inhibition of Leptosphaeria maculans brassinin oxidase assessed as relative protein at 0.20 mM relative to control.
Data set [7] concerns Plenodomus lingam. Description: Inhibition of Leptosphaeria maculans brassinin oxidase assessed as relative protein at 0.10 mM relative to control.
For data set [8], the system named is Plenodomus lingam. Kind of data set: Inhibition of Leptosphaeria maculans brassinin oxidase assessed as relative specific activity at 0.50 mM relative to control.
Data set [9] relates to Plenodomus lingam. Description: Inhibition of Leptosphaeria maculans brassinin oxidase assessed as relative specific activity at 0.20 mM relative to control.
In data set [10] the test system is Plenodomus lingam. Description: Inhibition of Leptosphaeria maculans brassinin oxidase assessed as relative specific activity at 0.10 mM relative to control.
For data set [11], the system named is Plenodomus lingam. Description: Inhibition of Leptosphaeria maculans brassinin oxidase activity at 0.10 mM relative to control.
Data set [12] concerns Plenodomus lingam. Description: Antifungal activity against Leptosphaeria maculans assessed as inhibition of mycelial growth at 0.50 mM relative to control. Type of data set: functional.

SMILES strings stand for the structures.

In general, inhibition refers to the drop in the measured response relative to a control, in per cent. As for `c1ccc2cc(-c3cnsc3)ccc2c1` [2-NAPHTHALENYLISOTHIAZOLE], the inhibition in the data set on Plenodomus lingam [1] was found to be 42%; with Plenodomus lingam [11], 29%. The solubility entry in data set [2] is on record as “Insoluble”. In addition, the inhibition at 200 µM with Plenodomus lingam [3] turned out to be 53%. Further, the inhibition at 100 µM in the data set with Plenodomus lingam [4] worked out at 41%. The Ratio in the data set with Plenodomus lingam [5] turned out to be 0.16; in the data set on Plenodomus lingam [6], 0.17; in the data set with Plenodomus lingam [7], 0.26; with Plenodomus lingam [8], 16.3; in the data set with Plenodomus lingam [9], 8.5; in the data set on Plenodomus lingam [10], 2.6.
Take `COc1ccc2[nH]cc(-c3nccs3)c2c1` [5-METHOXYCAMALEXIN]: the inhibition in the data set with Plenodomus lingam [1] stood at 72%; in the data set with Plenodomus lingam [11], 51%. Besides, the inhibition at 500 µM in the data set with Plenodomus lingam [12] is 100%. In addition, the inhibition at 200 µM with Plenodomus lingam [3] was 84%. Besides, the inhibition at 100 µM with Plenodomus lingam [4] worked out at 60%. Further, the Ratio is 0.13 in the data set on Plenodomus lingam [5]; 0.24 in the data set on Plenodomus lingam [6]; 0.28 in the data set on Plenodomus lingam [7]; 1.6 in the data set with Plenodomus lingam [8]; 5.8 in the data set on Plenodomus lingam [9]; 1.7 with Plenodomus lingam [10].
In the case of `c1ccc2c(-c3cnsc3)cccc2c1`, the figures for the inhibition in the data set with Plenodomus lingam [1] and in the data set with Plenodomus lingam [11] were 21% and 16%, respectively.
In the case of `c1ccc2[nH]c(-c3cscn3)nc2c1` [THIABENDAZOLE], the inhibition in the data set on Plenodomus lingam [1] amounted to 25%; in the data set with Plenodomus lingam [11], 16%. For the same compound, in the data set with Plenodomus lingam [4], the inhibition at 100 µM worked out at 100%. Also, the Ratio in the data set on Plenodomus lingam [5] was determined as 0.06; in the data set on Plenodomus lingam [6], 0.28; in the data set with Plenodomus lingam [7], 0.35; with Plenodomus lingam [8], 4.9; in the data set with Plenodomus lingam [9], 4.1; with Plenodomus lingam [10], 1.9.
Regarding `COc1ccc2c(-c3nccs3)c[nH]c2c1` [6-METHOXYCAMALEXIN], the inhibition in the data set with Plenodomus lingam [1] came out at 63%; in the data set on Plenodomus lingam [11], 41%. In the data set on Plenodomus lingam [12], the inhibition at 500 µM is 100%. Also, the inhibition at 200 µM in the data set on Plenodomus lingam [3] was 78%. In addition, the inhibition at 100 µM with Plenodomus lingam [4] worked out at 17%. For the same compound, the Ratio with Plenodomus lingam [5] is 0.11; in the data set with Plenodomus lingam [6] it was 0.16; in the data set on Plenodomus lingam [7] it was 0.27; with Plenodomus lingam [8], 4; in the data set on Plenodomus lingam [9], 3.7; in the data set on Plenodomus lingam [10], 2.3.
Consider `Fc1ccc2[nH]cc(-c3nccs3)c2c1` [5-FLUOROCAMALEXIN], for which the inhibition in the data set on Plenodomus lingam [1] came to 63%; with Plenodomus lingam [11], 47%. Besides, in the data set on Plenodomus lingam [12], the inhibition at 500 µM was 100%. Also, the inhibition at 200 µM in the data set on Plenodomus lingam [3] was 81%. For the same compound, the inhibition at 100 µM in the data set with Plenodomus lingam [4] worked out at 76%. Also, the Ratio with Plenodomus lingam [5] was found to be 0.19; in the data set on Plenodomus lingam [6] it was 0.23; in the data set with Plenodomus lingam [7], 0.3; in the data set on Plenodomus lingam [8], 7.9; with Plenodomus lingam [9], 4.9; in the data set with Plenodomus lingam [10] it was 5.
`Fc1ccc2c(-c3nccs3)c[nH]c2c1` [6-FLUOROCAMALEXIN]: the inhibition in the data set on Plenodomus lingam [1] came to 46%; in the data set on Plenodomus lingam [11] it was 29%. Further, the inhibition at 500 µM with Plenodomus lingam [12] worked out at 83%. For the same compound, in the data set on Plenodomus lingam [3], the inhibition at 200 µM stood at 47%. Besides, in the data set with Plenodomus lingam [4], the inhibition at 100 µM came to 29%. Further, the Ratio is 0.24 with Plenodomus lingam [5]; 0.28 in the data set with Plenodomus lingam [6]; 0.36 in the data set on Plenodomus lingam [7]; 1.8 in the data set with Plenodomus lingam [8]; 4 in the data set on Plenodomus lingam [9]; 3.9 in the data set with Plenodomus lingam [10].
Take `Fc1ccc2c(-c3ccccc3)c[nH]c2c1`: the inhibition with Plenodomus lingam [1] is 17%; in the data set with Plenodomus lingam [11], 11%.
Take `c1ccc2c(-c3nccs3)c[nH]c2c1` [CAMALEXIN]: the inhibition with Plenodomus lingam [1] worked out at 53%; in the data set on Plenodomus lingam [11] it was 30%. Also, in the data set with Plenodomus lingam [12], the inhibition at 500 µM was determined as 100%. Besides, the inhibition at 200 µM in the data set on Plenodomus lingam [3] amounted to 65%. In addition, in the data set with Plenodomus lingam [4], the inhibition at 100 µM came to 35%. In addition, the Ratio in the data set with Plenodomus lingam [5] came out at 0.1; with Plenodomus lingam [6], 0.24; in the data set on Plenodomus lingam [7] it was 0.28; in the data set on Plenodomus lingam [8], 2.5; with Plenodomus lingam [9] it was 6.9; in the data set with Plenodomus lingam [10] it was 4.5.
As for `c1ccc(-c2c[nH]c3ccccc23)cc1` [3-PHENYLINDOLE], the inhibition at 100 µM with Plenodomus lingam [4] turned out to be 100%. Besides, the Ratio was 0.1 in the data set on Plenodomus lingam [5]; 0.14 with Plenodomus lingam [6]; 0.18 in the data set with Plenodomus lingam [7]; 5.7 in the data set with Plenodomus lingam [8]; 39.2 in the data set with Plenodomus lingam [9]; 30.9 in the data set with Plenodomus lingam [10].
